Laboratory results: ChEMBL document CHEMBL1201862, “PubChem BioAssay data set” (2004)
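Test compounds were applied to cells in 96-well plates for 48 hours at 5 doses. GI50: concentration for 50% inhibition of growth.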 Activity calls are given as the source filed them. No stated cut-off is given here; in the data, active = GI50 up to about 1.1 µM and inactive = higher.

Experiments:
Test in all cases: NCI-60 cell line screen, 48 h
[1] = test system: HOP-62
[2] = test system: DU-145
[3] = test system: RPMI-8226
[4] = test system: K562
[5] = test system: MDA-N
[6] = test system: SN12C
[7] = test system: SK-MEL-5
[8] = test system: EKVX
[9] = test system: SK-MEL-2
[10] = test system: 786-0
[11] = test system: NCI/ADR-RES
[12] = test system: NCI-H23
[13] = test system: HCC 2998
[14] = test system: MCF7
[15] = test system: NCI-H522
[16] = test system: A498
[17] = test system: CAKI-1
[18] = test system: RXF 393
[19] = test system: A549
[20] = test system: UO-31
[21] = test system: SR
[22] = test system: SF-295
[23] = test system: HL-60
[24] = test system: LOX IMVI
[25] = test system: CCRF-CEM
[26] = test system: TK-10
[27] = test system: SK-OV-3
[28] = test system: U-251
[29] = test system: ACHN
[30] = test system: T47D
[31] = test system: SF-539
[32] = test system: NCI-H460
[33] = test system: PC-3
[34] = test system: NCI-H226
[35] = test system: MDA-MB-435
[36] = test system: SW-620
[37] = test system: SF-268
[38] = test system: OVCAR-5
[39] = test system: COLO 205
[40] = test system: UACC-257
[41] = test system: Hs-578T
[42] = test system: KM12
[43] = test system: UACC-62
[44] = test system: MOLT-4
[45] = test system: SNB-19
[46] = test system: HCT-15
[47] = test system: M14
[48] = test system: HT-29
[49] = test system: HCT-116
[50] = test system: IGROV-1
[51] = test system: HOP-92
[52] = test system: Malme-3M
[53] = test system: SK-MEL-28
[54] = test system: OVCAR-3
[55] = test system: OVCAR-4
[56] = test system: MDA-MB-231
[57] = test system: SNB-75
[58] = test system: OVCAR-8

Cc1cccc2oc3c(c(=O)c12)CC(O)C(C)(C)O3 (stereo unspecified)
GI50 [1]: > 100000 nM (inactive) | GI50 [2]: > 100000 nM (inactive) | GI50 [3]: 74100 nM (inactive) | GI50 [4]: > 100000 nM (inactive) | GI50 [5]: > 100000 nM (inactive) | GI50 [6]: > 100000 nM (inactive) | GI50 [7]: > 100000 nM (inactive) | GI50 [8]: > 100000 nM (inactive) | GI50 [9]: > 100000 nM (inactive) | GI50 [10]: > 100000 nM (inactive) | GI50 [11]: 79100 nM (inactive) | GI50 [12]: > 100000 nM (inactive) | GI50 [13]: > 100000 nM (inactive) | GI50 [14]: > 100000 nM (inactive) | GI50 [15]: 35900 nM (inactive) | GI50 [16]: > 100000 nM (inactive) | GI50 [17]: > 100000 nM (inactive) | GI50 [18]: 74000 nM (inactive) | GI50 [19]: > 100000 nM (inactive) | GI50 [20]: > 100000 nM (inactive) | GI50 [21]: 56100 nM (inactive) | GI50 [22]: > 100000 nM (inactive) | GI50 [23]: 23900 nM (inactive) | GI50 [24]: 86500 nM (inactive) | GI50 [25]: 28200 nM (inactive) | GI50 [26]: > 100000 nM (inactive) | GI50 [27]: > 100000 nM (inactive) | GI50 [28]: > 100000 nM (inactive) | GI50 [29]: > 100000 nM (inactive) | GI50 [30]: > 100000 nM (inactive) | GI50 [31]: > 100000 nM (inactive) | GI50 [32]: > 100000 nM (inactive) | GI50 [33]: > 100000 nM (inactive) | GI50 [34]: > 100000 nM (inactive) | GI50 [35]: > 100000 nM (inactive) | GI50 [36]: 51600 nM (inactive) | GI50 [37]: > 100000 nM (inactive) | GI50 [38]: > 100000 nM (inactive) | GI50 [39]: > 100000 nM (inactive) | GI50 [40]: > 100000 nM (inactive) | GI50 [41]: > 100000 nM (inactive) | GI50 [42]: > 100000 nM (inactive) | GI50 [43]: > 100000 nM (inactive) | GI50 [44]: 38500 nM (inactive) | GI50 [45]: > 100000 nM (inactive) | GI50 [46]: > 100000 nM | GI50 [47]: > 100000 nM (inactive) | GI50 [48]: > 100000 nM (inactive) | GI50 [49]: 45800 nM (inactive) | GI50 [50]: > 100000 nM (inactive) | GI50 [51]: > 100000 nM (inactive) | GI50 [52]: > 100000 nM (inactive) | GI50 [53]: > 100000 nM (inactive) | GI50 [54]: 99100 nM (inactive) | GI50 [55]: > 100000 nM (inactive)

C/C(=N\Nc1nc2ccccc2[nH]1)c1ncccn1
GI50 [1]: 1640 nM (inactive) | GI50 [3]: 58.5 nM (active) | GI50 [4]: 44 nM (active) | GI50 [5]: 388 nM (active) | GI50 [6]: 71.5 nM (active) | GI50 [7]: 57.4 nM (active) | GI50 [8]: 26 nM (active) | GI50 [9]: 2010 nM (inactive) | GI50 [10]: 23.8 nM (active) | GI50 [11]: 60.8 nM (active) | GI50 [12]: 62.1 nM (active) | GI50 [13]: 721 nM (active) | GI50 [14]: 32.1 nM (active) | GI50 [15]: < 16.4 nM (active) | GI50 [16]: 85.1 nM (active) | GI50 [17]: < 22.4 nM (active) | GI50 [18]: 77.1 nM (active) | GI50 [19]: 68.2 nM (active) | GI50 [20]: < 20.2 nM (active) | GI50 [21]: < 21 nM (active) | GI50 [22]: 45.3 nM (active) | GI50 [56]: 59 nM (active) | GI50 [23]: < 10 nM (active) | GI50 [24]: 47 nM (active) | GI50 [25]: 30.3 nM (active) | GI50 [26]: 1310 nM (inactive) | GI50 [27]: 214 nM (active) | GI50 [28]: 46.2 nM (active) | GI50 [29]: < 23.2 nM (active) | GI50 [30]: 21.5 nM (active) | GI50 [31]: 17.2 nM (active) | GI50 [32]: 29.9 nM (active) | GI50 [33]: 1920 nM (inactive) | GI50 [34]: 42.2 nM (active) | GI50 [35]: 96.8 nM (active) | GI50 [36]: 34.4 nM (active) | GI50 [37]: 38.2 nM (active) | GI50 [38]: 735 nM (active) | GI50 [39]: < 19.7 nM (active) | GI50 [40]: 136 nM (active) | GI50 [41]: 12100 nM (inactive) | GI50 [42]: 136 nM (active) | GI50 [43]: 69.3 nM (active) | GI50 [57]: 119 nM (active) | GI50 [44]: < 10 nM (active) | GI50 [45]: 87.9 nM (active) | GI50 [46]: 30.2 nM | GI50 [47]: 41.7 nM (active) | GI50 [48]: 23.6 nM (active) | GI50 [49]: 22.6 nM (active) | GI50 [50]: < 31 nM (active) | GI50 [51]: 55.2 nM (active) | GI50 [52]: < 24.3 nM (active) | GI50 [58]: 43 nM (active) | GI50 [53]: 94.8 nM (active) | GI50 [54]: 871 nM (active) | GI50 [55]: 52.8 nM (active)

O=C1c2c(O)ccc(O)c2C(=O)c2c(NCCNCCO)ccc(NCCNCCO)c21 [MITOXANTRONE]
GI50 [4]: 74.1 nM (active) | GI50 [7]: 71.9 nM (active) | GI50 [16]: 112 nM (active) | GI50 [19]: < 10 nM (active) | GI50 [31]: < 10 nM (active) | GI50 [35]: 259 nM (active) | GI50 [40]: 995 nM (active) | GI50 [49]: 37.3 nM (active) | GI50 [51]: 35.5 nM (active)
